Measured values published in ChEMBL document CHEMBL3992562, “Multifunctional thioxanthone derivatives with acetylcholinesterase, monoamine oxidases and β-amyloid aggregation inhibitory activities as potential agents against Alzheimer's disease” (Bioorg Med Chem, 2017).
Active and inactive are the calls of the source. No cut-off for these calls is given here.

Columns and labels:
[1] = system: BuChE (butyrylcholinesterase); assay: Inhibition of rat serum BuChE at 50 uM using S-butylthiocholine iodide as substrate measured after 15 mins by Ellman's method relative to control; conditions: probe S-butylthiocholine iodide
[2] = molecular target: T1, Amine oxidase [flavin-containing] A (Homo sapiens, UniProt P21397); assay: Inhibition of recombinant human MAO-A expressed in baculovirus infected BTI insect cells using kynuramine as substrate after 30 mins by fluorimetric method
T1 sequence (P21397 whole entry): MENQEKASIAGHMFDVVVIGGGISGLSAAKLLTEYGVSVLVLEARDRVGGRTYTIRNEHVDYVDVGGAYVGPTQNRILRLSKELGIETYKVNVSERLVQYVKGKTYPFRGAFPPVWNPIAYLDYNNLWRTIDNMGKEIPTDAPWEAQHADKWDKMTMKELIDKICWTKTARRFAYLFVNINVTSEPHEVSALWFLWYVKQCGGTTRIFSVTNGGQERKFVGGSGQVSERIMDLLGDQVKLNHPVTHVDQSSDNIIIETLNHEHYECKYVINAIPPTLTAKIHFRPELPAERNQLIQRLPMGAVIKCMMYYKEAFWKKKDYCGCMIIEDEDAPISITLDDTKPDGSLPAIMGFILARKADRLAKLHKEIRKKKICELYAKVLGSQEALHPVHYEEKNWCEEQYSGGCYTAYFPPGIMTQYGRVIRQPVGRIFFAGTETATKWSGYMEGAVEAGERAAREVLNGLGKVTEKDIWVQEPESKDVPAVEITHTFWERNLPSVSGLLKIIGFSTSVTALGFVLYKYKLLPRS

[3] = Inhibition of cupric ion-mediated amyloid beta (1 to 42) aggregation at 25 uM measured after 24 hrs by ThT fluorescence assay relative to control
Acetylcholinesterase = Acetylcholinesterase (Electrophorus electricus, UniProt O42275); assay: Inhibition of electric eel AChE using acetylthiocholine iodide as substrate measured after 15 mins by Ellman's method
Homo sapiens = species: Homo sapiens; assay: Selectivity index, ratio of IC50 for recombinant human MAO-A expressed in baculovirus infected BTI insect cells to IC50 for recombinant human MAO-B expressed in baculovirus infected BTI insect cells
[4] = Antioxidant activity assessed as trolox equivalent of AAPH-induced radical scavenging activity at 5 uM incubated for 15 mins prior to APPH challenge measured every minute for 90 mins by ORAC-FL assay; type: functional
[5] = molecular target: Amyloid-beta precursor protein (Homo sapiens) (UniProt P05067); assay: Inhibition of self-induced amyloid beta (1 to 42) (unknown origin) aggregation at 25 uM measured after 24 hrs by ThT fluorescence assay relative to control
[6] = molecular target: T2, Amine oxidase [flavin-containing] B (Homo sapiens, UniProt P27338); assay: Inhibition of recombinant human MAO-B expressed in baculovirus infected BTI insect cells using kynuramine as substrate after 30 mins by fluorimetric method; type: cell-based
T2 sequence (P27338 whole entry): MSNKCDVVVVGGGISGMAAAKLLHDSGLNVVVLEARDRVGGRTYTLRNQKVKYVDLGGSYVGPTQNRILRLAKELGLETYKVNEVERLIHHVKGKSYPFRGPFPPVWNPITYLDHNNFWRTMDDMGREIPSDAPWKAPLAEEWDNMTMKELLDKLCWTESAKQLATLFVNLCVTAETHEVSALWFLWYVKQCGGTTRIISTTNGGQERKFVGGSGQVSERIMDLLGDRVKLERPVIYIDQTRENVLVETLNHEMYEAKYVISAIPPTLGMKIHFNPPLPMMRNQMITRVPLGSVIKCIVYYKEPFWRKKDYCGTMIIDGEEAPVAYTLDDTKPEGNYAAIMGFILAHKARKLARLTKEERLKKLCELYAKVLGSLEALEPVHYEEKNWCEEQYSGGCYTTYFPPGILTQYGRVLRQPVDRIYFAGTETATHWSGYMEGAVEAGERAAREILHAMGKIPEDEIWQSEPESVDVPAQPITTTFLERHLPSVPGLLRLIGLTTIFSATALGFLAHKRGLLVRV

[7] = Inhibition of rat serum BuChE using S-butylthiocholine iodide as substrate measured after 15 mins by Ellman's method
[8] = Permeability of the compound at 100 ug/ml after 18 hrs by PAMPA; type: physicochemical; conditions: read-out: permeability
[9] = Cytotoxicity against human SH-SY5Y cells assessed as cell viability at 10 uM after 24 hrs by MTT assay relative to control; type: cell-based; conditions: read-out: Activity
[10] = Metal chelating activity assessed as Zn2+-compound complex formation at 37.5 uM after 30 mins by UV-visible spectrometry; type: functional
[11] = Metal chelating activity assessed as Al3+-compound complex formation at 37.5 uM after 30 mins by UV-visible spectrometry; type: functional
[12] = Metal chelating activity assessed as Fe2+-compound complex formation at 37.5 uM after 30 mins by UV-visible spectrometry; type: functional
[13] = Metal chelating activity assessed as Cu2+-compound complex formation at 37.5 uM after 30 mins by UV-visible spectrometry; type: functional
[14] = molecular target: Acetylcholinesterase (Electrophorus electricus) (UniProt O42275); assay: Mixed-type inhibition of electric eel AChE using acetylthiocholine iodide as substrate preincubated for 15 mins followed by substrate addition by Lineweaver-Burk plot analysis
[15] = Metal chelating activity assessed as mole fraction of compound required to show 1:1.5 stoichiometry for Cu2+-compound complex at 37.5 uM after 30 mins by UV-visible spectrometry; type: functional
[16] = Cytotoxicity against human SH-SY5Y cells assessed as cell viability at 100 uM after 24 hrs by MTT assay relative to control; type: cell-based; conditions: read-out: Activity
[17] = Cytotoxicity against human SH-SY5Y cells assessed as cell viability at 1 uM after 24 hrs by MTT assay relative to control; type: cell-based; conditions: read-out: Activity

Chain of Amyloid-beta precursor protein (Homo sapiens) (P05067 whole entry): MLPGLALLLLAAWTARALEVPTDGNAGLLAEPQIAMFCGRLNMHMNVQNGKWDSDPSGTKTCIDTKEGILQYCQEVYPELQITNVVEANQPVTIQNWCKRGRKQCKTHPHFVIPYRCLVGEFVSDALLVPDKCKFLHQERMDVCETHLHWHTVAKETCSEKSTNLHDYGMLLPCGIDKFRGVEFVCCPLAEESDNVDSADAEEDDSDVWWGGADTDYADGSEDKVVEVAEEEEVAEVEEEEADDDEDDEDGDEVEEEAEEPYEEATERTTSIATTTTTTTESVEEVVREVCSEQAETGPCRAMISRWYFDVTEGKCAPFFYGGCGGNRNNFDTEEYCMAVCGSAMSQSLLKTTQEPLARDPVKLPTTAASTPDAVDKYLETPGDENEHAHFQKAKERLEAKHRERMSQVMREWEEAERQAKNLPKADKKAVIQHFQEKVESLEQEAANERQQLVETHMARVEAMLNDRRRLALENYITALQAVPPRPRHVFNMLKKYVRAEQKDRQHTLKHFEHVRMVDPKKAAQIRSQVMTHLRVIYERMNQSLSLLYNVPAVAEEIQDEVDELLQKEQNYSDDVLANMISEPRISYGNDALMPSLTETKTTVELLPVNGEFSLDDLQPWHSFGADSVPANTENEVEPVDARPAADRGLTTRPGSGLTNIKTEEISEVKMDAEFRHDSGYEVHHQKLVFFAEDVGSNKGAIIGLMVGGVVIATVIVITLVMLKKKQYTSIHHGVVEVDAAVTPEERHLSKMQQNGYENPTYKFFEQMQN
Chain of Acetylcholinesterase (O42275 whole entry): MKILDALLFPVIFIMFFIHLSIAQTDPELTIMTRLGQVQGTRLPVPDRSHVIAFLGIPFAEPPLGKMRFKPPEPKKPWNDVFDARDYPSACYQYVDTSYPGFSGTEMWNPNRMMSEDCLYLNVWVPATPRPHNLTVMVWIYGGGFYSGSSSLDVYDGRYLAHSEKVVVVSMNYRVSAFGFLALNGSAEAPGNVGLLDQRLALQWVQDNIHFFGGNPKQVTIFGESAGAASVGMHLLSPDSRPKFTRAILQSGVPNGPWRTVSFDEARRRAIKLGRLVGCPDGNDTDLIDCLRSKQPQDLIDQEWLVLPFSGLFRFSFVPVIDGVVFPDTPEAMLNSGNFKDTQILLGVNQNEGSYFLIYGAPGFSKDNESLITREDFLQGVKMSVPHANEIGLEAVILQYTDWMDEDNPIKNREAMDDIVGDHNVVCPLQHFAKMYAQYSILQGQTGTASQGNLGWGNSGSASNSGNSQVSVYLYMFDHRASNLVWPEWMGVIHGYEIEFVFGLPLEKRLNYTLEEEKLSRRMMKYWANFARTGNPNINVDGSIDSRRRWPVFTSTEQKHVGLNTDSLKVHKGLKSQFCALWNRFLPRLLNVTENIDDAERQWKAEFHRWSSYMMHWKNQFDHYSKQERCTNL
Chain of Acetylcholinesterase (Electrophorus electricus) (O42275 24-633 limits assumed): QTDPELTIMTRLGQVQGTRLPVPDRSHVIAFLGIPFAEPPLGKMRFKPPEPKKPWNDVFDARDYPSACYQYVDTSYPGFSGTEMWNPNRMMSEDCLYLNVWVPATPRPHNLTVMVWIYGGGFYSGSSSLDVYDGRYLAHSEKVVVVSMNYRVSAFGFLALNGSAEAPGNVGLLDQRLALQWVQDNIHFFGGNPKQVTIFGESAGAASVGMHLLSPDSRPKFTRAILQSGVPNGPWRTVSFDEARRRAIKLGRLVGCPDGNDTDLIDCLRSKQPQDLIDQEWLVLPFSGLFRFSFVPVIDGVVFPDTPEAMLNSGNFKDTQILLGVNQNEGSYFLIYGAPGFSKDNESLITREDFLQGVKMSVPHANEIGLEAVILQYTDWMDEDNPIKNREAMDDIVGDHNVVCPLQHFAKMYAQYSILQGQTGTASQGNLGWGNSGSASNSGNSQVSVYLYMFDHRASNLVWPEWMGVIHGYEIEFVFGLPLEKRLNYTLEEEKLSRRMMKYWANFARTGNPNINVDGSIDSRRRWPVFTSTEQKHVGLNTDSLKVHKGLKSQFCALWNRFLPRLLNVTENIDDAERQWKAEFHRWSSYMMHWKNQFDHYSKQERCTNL

Row | SMILES | inhibition at 0.25 h, 50 µM [1] [%] | IC50 [2] [nM] | inhibition [3] [%] | IC50 (Acetylcholinesterase) [nM] | Ratio IC50 (Homo sapiens) | Activity [4] [µMequiv/µM] | inhibition [5] [%] | IC50 [6] [nM] | IC50 [7] [nM] | Papp at 18 h, 100 ug/ml [8] [×10⁻⁶ cm/s] | viability at 24 h, 10 µM [9] [%] | Activity [10] | Activity [11] | Activity [12] | Activity [13] | inhibition [14] | Activity [15] [molar ratio] | viability at 24 h, 100 µM [16] [%] | viability at 24 h, 1 µM [17] [%]
1 | CCN(CCCOc1cc(O)c2c(=O)c3ccccc3sc2c1)Cc1ccccc1OC | 17.3 | 8170 | 80 | 2790 | 4.35 | 0.68 | 68.2 | 1880 |  |  |  |  |  |  |  |  |  |  | 
2 | CCN(CCCOc1cc(O)c2c(=O)c3ccccc3sc2c1)Cc1ccccc1N(C)C | 22.4 | 5940 | 75.7 | 250 | 1.59 | 0.35 | 46.9 | 3730 |  |  |  |  |  |  |  |  |  |  | 
3 | CCN(CCCCOc1cc(O)c2c(=O)c3ccccc3sc2c1)Cc1ccccc1N(C)C | 30.3 | 1540 | 82.1 | 2880 | 0.76 | 0.95 | 72.1 | 2020 |  |  |  |  |  |  |  |  |  |  | 
4 | CN(CCCOc1cc(O)c2c(=O)c3ccccc3sc2c1)Cc1ccccc1 | < 5 | 16000 | 81.1 | 11200 | 9.25 | 0.48 | 40.5 | 1730 |  |  |  |  |  |  |  |  |  |  | 
5 | CCN(CCCOc1cc(O)c2c(=O)c3ccccc3sc2c1)Cc1ccccc1 | 31.8 | 13200 | 70.9 | 18400 | 1.85 | 0.59 | 46.9 | 7130 |  |  |  |  |  |  |  |  |  |  | 
6 | CCN(CCCCOc1cc(O)c2c(=O)c3ccccc3sc2c1)Cc1ccccc1 | < 5 | 340 | 82.1 | 22000 | 1.26 | 1 | 75.8 | 270 |  |  |  |  |  |  |  |  |  |  | 
7 | CCN(CCCCCCOc1cc(O)c2c(=O)c3ccccc3sc2c1)Cc1ccccc1OC | 13.9 | 1300 | 86.3 | 11500 | 2.83 | 0.83 | 78.7 | 460 |  |  |  |  |  |  |  |  |  |  | 
8 | COc1cc2c(cc1OC)C(=O)C(CC1CCN(Cc3ccccc3)CC1)C2 (centres undefined) [DONEPEZIL] |  |  |  |  |  |  |  |  | 21400 |  |  |  |  |  |  |  |  |  | 
9 | CCN(CCCCOc1cc(O)c2c(=O)c3ccccc3sc2c1)Cc1ccc(N(C)C)cc1 | 7.15 | 1000 | 81.9 | 25400 | 0.45 | 1.5 | 77.1 | 2200 |  |  |  |  |  |  |  |  |  |  | 
10 | COc1ccccc1CN(C)CCCCOc1cc(O)c2c(=O)c3ccccc3sc2c1 | 5.62 | 620 | 88 | 9160 | 1.05 | 1.04 | 79.9 | 590 |  |  |  |  |  |  |  |  |  |  | 
11 | CN(CCCCCCOc1cc(O)c2c(=O)c3ccccc3sc2c1)Cc1ccccc1 | < 5 | 570 | 76.8 | 320 | 1.63 | 0.37 | 47.5 | 350 |  |  |  |  |  |  |  |  |  |  | 
12 | COc1ccccc1CN(C)CCCOc1cc(O)c2c(=O)c3ccccc3sc2c1 | 30.2 | 6310 | 77.8 | 28700 | 1.04 | 0.22 | 45.2 | 6090 |  |  |  |  |  |  |  |  |  |  | 
13 | CCN(CCCCCCOc1cc(O)c2c(=O)c3ccccc3sc2c1)Cc1ccccc1 | 8.83 | 1440 | 76.4 | 580 | 4.36 | 0.17 | 50.6 | 330 |  | 4.12 |  |  |  |  |  |  |  |  | 
14 | CCN(CCCCCCOc1cc(O)c2c(=O)c3ccccc3sc2c1)Cc1ccccc1N(C)C | 28.7 | 1010 | 87.7 | 590 | 1.12 | 0.74 | 74.8 | 900 |  | 3.49 | 96.8 | inactive | inactive | Active | Active | Active | 1.5 | 68.1 | 99.7
15 | O=c1c2ccccc2sc2cc(O)cc(O)c12 | < 5 | 280 | 31.4 | 38900 | 0.93 | 0.42 | 9.5 | 300 |  |  |  |  |  |  |  |  |  |  | 
16 | CCN(CCCCOc1ccc(-c2coc3cc(OCCCCN(CC)Cc4ccccc4OC)cc(O)c3c2=O)cc1)Cc1ccccc1OC | 20 |  | 77.8 |  |  | 0.3 |  |  |  |  |  |  |  |  |  |  |  |  | 
17 | CCN(CCCOc1cc(O)c2c(=O)c3ccccc3sc2c1)Cc1ccc(N(C)C)cc1 | < 5 | 2790 | 85.4 | 17700 | 0.79 | 1.38 | 64.8 | 3550 |  |  |  |  |  |  |  |  |  |  | 
18 | CN(CCCCOc1cc(O)c2c(=O)c3ccccc3sc2c1)Cc1ccccc1 | < 5 | 570 | 88.6 | 12400 | 1.54 | 1.18 | 79.5 | 370 |  |  |  |  |  |  |  |  |  |  | 
19 | CCN(CCCCOc1cc(O)c2c(=O)c3ccccc3sc2c1)Cc1ccccc1OC | < 5 | 1020 | 82 | 15500 | 1.16 | 0.57 | 89.4 | 880 |  |  |  |  |  |  |  |  |  |  | 
20 | CCN(CCCCCCOc1cc(O)c2c(=O)c3ccccc3sc2c1)Cc1ccc(N(C)C)cc1 | < 5 | 1250 | 91.3 | 33800 | 3.21 | 1.37 | 76.3 | 390 |  |  |  |  |  |  |  |  |  |  | 
21 | COc1ccccc1CN(C)CCCCCCOc1cc(O)c2c(=O)c3ccccc3sc2c1 | 14.9 | 1030 | 86.5 | 4280 | 2.71 | 0.66 | 68 | 380 |  |  |  |  |  |  |  |  |  |  | 
22 | COc1cc(/C=C/C(=O)CC(=O)/C=C/c2ccc(O)c(OC)c2)ccc1O |  |  | 70 |  |  | 2.43 |  |  |  |  |  |  |  |  |  |  |  |  | 
